How the values were obtained:
Test in all cases: biochemical
Set-up in all cases: KINOMEscan scanMAX active site-directed competition binding assay, percent of control, 468 kinases
Conditions in all cases: competition binding, percent of control
AKT3 = AKT3 (Homo sapiens, UniProt Q9Y243)
Method in brief: (§1)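 KINOMEscan active site-directed competition binding assay against 468 human kinases with 100 μM S-carvone. Binding expressed as % of control, with 35% of control as the inhibition threshold.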

NEK6 = NEK6 (Homo sapiens, UniProt Q9HC98)
NEK6, sequence (Q9HC98 whole entry): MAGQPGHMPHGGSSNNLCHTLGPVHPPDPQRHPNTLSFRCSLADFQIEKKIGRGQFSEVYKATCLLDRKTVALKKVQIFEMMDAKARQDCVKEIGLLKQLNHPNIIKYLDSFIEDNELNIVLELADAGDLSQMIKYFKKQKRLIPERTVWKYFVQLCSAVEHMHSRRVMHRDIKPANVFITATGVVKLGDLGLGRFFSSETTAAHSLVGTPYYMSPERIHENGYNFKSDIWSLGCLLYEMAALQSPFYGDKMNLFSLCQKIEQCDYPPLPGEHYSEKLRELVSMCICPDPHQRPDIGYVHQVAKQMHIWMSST
Method in brief: as §1

AURKC = AURKC (Homo sapiens, UniProt Q9UQB9)
AURKC, sequence (Q9UQB9 whole entry): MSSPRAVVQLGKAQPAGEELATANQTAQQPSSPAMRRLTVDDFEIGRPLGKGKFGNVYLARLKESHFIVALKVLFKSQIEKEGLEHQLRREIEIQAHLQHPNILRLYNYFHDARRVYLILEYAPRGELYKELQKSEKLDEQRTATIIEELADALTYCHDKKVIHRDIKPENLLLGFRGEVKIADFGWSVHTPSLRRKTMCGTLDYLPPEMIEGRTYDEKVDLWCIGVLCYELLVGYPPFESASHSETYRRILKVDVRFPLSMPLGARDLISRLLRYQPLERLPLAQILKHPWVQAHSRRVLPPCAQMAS
Method in brief: as §1

GRK1 = GRK1 (Homo sapiens, UniProt Q15835)
Method in brief: as §1

BMPR2 = BMPR2 (Homo sapiens, UniProt Q13873)
Method in brief: as §1

AXL = AXL (Homo sapiens, UniProt P30530)
Method in brief: as §1

YANK3 = target: T1, YANK3 (Homo sapiens, UniProt Q86UX6)
T1 construct: gene STK32C
Method in brief: as §1

FGFR3(G697C) = FGFR3(G697C) (Homo sapiens, UniProt P22607, G697C)
Method in brief: as §1

LCK = LCK (Homo sapiens, UniProt P06239)
Method in brief: as §1

DLK = target: T2, DLK (Homo sapiens, UniProt Q12852)
T2 construct: gene MAP3K12
T2 sequence (Q12852 whole entry): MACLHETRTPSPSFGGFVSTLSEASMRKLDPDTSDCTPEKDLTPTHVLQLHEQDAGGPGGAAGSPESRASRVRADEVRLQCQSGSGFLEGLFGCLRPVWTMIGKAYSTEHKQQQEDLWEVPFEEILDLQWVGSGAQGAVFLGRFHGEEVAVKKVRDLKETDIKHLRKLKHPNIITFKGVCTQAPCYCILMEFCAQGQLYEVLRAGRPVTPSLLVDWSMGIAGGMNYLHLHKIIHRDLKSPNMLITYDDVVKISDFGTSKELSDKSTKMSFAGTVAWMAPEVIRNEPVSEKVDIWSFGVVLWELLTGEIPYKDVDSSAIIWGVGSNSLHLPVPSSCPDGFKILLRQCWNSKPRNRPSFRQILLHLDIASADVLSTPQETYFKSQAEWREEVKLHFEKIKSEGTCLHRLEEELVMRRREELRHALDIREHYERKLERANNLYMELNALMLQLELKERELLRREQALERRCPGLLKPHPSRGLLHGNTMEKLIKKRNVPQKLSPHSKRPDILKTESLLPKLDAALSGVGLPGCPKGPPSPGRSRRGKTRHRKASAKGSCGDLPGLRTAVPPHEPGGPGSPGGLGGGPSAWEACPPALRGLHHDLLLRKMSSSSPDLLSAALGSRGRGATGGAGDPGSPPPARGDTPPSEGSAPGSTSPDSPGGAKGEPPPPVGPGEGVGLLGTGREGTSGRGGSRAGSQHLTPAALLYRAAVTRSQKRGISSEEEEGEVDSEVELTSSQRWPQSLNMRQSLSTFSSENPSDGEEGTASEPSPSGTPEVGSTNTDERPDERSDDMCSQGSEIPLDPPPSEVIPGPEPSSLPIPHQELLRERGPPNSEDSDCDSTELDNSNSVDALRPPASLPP
Method in brief: as §1

TRKC = target: T3, TRKC (Homo sapiens, UniProt Q16288)
T3 construct: gene NTRK3
Method in brief: as §1

MAP4K2 = MAP4K2 (Homo sapiens, UniProt Q12851)
Method in brief: as §1

AMPK-alpha2 = target: T4, AMPK-alpha2 (Homo sapiens, UniProt P54646)
T4 construct: gene PRKAA2
T4 sequence (P54646 whole entry): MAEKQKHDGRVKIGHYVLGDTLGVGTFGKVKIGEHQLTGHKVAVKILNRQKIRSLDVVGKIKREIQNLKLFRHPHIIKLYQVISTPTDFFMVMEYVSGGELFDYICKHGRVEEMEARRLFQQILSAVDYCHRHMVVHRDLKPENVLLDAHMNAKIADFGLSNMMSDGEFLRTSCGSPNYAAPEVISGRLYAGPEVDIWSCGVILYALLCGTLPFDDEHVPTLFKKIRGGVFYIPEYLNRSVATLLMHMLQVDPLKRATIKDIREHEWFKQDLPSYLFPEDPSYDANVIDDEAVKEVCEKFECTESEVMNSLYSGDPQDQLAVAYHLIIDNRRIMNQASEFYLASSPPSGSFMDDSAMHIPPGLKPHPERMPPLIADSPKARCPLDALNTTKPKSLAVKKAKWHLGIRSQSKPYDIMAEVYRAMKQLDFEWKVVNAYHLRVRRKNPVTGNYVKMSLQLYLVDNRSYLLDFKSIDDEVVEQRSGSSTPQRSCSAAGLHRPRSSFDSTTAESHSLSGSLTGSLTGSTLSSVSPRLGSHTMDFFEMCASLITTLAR
Method in brief: as §1

[1] = target: EGFR(L747-S752del, P753S) (Homo sapiens, UniProt P00533, DEL747-752/P753S)
EGFR(L747-S752del, P753S), sequence (P00533 with tags, fused parts or gaps DEL747-752/P753S): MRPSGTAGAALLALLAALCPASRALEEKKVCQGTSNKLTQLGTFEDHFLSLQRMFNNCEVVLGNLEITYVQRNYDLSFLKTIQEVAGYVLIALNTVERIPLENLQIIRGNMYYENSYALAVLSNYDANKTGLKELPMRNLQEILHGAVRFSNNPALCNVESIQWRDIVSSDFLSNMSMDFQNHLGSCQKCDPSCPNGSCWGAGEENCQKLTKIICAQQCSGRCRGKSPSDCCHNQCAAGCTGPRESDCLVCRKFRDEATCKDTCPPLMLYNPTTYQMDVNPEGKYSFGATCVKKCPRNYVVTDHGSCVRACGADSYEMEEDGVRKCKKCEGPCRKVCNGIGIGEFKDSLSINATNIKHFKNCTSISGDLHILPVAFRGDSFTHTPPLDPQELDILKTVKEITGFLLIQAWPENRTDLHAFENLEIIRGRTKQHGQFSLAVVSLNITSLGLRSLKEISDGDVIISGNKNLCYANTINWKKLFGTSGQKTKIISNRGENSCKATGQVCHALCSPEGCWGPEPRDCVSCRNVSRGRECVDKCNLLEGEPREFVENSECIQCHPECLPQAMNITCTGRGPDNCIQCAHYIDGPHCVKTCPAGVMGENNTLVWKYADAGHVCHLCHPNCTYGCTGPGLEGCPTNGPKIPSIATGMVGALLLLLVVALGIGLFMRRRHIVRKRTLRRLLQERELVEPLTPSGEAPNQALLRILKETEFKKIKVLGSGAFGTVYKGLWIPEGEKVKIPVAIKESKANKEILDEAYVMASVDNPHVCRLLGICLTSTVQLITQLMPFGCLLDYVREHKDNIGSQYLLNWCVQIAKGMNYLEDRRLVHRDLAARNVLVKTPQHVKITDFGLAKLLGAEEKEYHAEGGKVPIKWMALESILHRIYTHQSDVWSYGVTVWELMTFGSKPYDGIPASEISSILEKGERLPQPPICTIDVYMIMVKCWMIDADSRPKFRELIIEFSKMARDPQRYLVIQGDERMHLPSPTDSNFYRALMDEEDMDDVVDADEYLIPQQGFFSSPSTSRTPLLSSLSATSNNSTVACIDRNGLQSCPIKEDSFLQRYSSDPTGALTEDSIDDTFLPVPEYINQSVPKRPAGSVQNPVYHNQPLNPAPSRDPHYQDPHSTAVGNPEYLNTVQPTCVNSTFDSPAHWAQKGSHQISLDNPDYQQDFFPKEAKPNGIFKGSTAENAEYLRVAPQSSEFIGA
Method in brief: as §1

LYN = LYN (Homo sapiens, UniProt P07948)
Method in brief: as §1

CAMK1B = target: T5, CAMK1B (Homo sapiens, UniProt Q6P2M8)
T5 construct: gene PNCK
T5 sequence (Q6P2M8 whole entry): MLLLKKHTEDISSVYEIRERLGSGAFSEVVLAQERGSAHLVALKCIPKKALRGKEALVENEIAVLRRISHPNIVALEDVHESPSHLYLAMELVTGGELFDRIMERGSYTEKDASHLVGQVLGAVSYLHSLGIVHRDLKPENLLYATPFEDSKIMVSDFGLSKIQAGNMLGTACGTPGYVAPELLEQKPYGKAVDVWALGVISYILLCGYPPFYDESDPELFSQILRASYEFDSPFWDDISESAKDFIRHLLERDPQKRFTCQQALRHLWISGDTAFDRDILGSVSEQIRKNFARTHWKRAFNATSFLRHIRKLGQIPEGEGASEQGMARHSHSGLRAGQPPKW
Method in brief: as §1

CSF1R = CSF1R (Homo sapiens, UniProt P07333)
Method in brief: as §1

PFTAIRE2 = target: T6, PFTAIRE2 (Homo sapiens, UniProt Q96Q40)
T6 construct: gene CDK15
Method in brief: as §1

SYK = SYK (Homo sapiens, UniProt P43405)
Method in brief: as §1

HIPK3 = HIPK3 (Homo sapiens, UniProt Q9H422)
HIPK3, sequence (Q9H422 whole entry): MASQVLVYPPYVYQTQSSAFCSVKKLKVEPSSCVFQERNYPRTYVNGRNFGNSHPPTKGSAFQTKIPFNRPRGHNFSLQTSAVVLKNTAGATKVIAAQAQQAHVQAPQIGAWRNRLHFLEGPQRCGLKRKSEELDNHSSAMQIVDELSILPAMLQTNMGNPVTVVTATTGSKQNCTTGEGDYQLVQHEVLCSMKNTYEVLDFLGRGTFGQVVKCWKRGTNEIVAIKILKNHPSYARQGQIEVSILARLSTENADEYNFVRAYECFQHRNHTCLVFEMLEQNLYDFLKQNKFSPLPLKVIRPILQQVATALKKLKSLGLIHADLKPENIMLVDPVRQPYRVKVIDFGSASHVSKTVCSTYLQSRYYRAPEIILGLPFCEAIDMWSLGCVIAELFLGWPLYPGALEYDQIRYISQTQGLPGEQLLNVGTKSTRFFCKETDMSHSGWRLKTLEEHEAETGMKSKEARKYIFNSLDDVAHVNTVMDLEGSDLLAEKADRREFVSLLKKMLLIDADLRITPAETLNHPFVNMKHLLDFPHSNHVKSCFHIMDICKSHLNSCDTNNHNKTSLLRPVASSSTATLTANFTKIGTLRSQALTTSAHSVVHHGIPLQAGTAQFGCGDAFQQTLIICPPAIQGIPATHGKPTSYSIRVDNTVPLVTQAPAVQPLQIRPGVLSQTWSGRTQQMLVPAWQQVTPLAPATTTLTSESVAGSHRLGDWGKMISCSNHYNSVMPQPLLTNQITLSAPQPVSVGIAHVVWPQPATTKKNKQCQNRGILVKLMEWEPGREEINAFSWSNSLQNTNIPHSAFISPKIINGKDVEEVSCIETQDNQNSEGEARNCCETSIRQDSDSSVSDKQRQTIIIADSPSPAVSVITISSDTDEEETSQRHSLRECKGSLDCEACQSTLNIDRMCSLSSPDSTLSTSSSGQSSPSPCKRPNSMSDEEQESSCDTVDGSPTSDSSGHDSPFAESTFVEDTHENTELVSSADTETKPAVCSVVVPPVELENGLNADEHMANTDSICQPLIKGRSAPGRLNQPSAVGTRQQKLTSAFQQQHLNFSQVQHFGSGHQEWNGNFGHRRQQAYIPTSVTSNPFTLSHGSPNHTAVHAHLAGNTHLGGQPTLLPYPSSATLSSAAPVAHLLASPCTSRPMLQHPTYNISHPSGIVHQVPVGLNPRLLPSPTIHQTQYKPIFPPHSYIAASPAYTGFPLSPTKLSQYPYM
Method in brief: as §1

FLT4 = FLT4 (Homo sapiens, UniProt P35916)
Method in brief: as §1

GSK3A = GSK3A (Homo sapiens, UniProt P49840)
Method in brief: as §1

remaining binding at 100 µM (AKT3): 90%
remaining binding at 100 µM (NEK6): 84%
remaining binding at 100 µM (AURKC): 100%
remaining binding at 100 µM (GRK1): 74%
remaining binding at 100 µM (BMPR2): 79%
remaining binding at 100 µM (AXL): 82%
remaining binding at 100 µM (YANK3): 91%
remaining binding at 100 µM (FGFR3(G697C)): 75%
remaining binding at 100 µM (LCK): 71%
remaining binding at 100 µM (DLK): 88%
remaining binding at 100 µM (TRKC): 82%
remaining binding at 100 µM (MAP4K2): 94%
remaining binding at 100 µM (AMPK-alpha2): 88%
remaining binding at 100 µM [1]: 68%
remaining binding at 100 µM (LYN): 72%
remaining binding at 100 µM (CAMK1B): 61%
remaining binding at 100 µM (CSF1R): 86%
remaining binding at 100 µM (PFTAIRE2): 87%
remaining binding at 100 µM (SYK): 75%
remaining binding at 100 µM (HIPK3): 51%
remaining binding at 100 µM (FLT4): 90%
remaining binding at 100 µM (GSK3A): 100%
Compound: C=C(C)[C@H]1CC=C(C)C(=O)C1 [S-carvone]
